Experimental findings from a melting point compilation (Tetko et al.; mined from patent text by program, amines drawn as free bases though some values may be those of a salt) are described below.

Usually melting point stands for the temperature of the solid-liquid transition.

Each structure is given as a SMILES string.

`O=C(C1CCNCC1)N1CCN(c2cccc3[nH]ccc23)CC1` came in with a melting point of over 240 °C.
`CCc1cc(-c2ccc(F)cc2)c(O)cc1OCCCCCC(c1ccc(OCC(=O)O)cc1)c1nnn[nH]1` (stereo not drawn) displayed a melting point of 102 to 104 °C.
Next, `COc1cc2c(cc1OC)CCC(C(=O)N1CCN(C(=O)c3cc(OC)c(OC)cc3OC)CC1)=C2`: 171 to 172 °C.
As for `N#Cc1ccc(NC(=O)OC2CN3CCC2CC3)cc1` (stereo not drawn), the melting point is 180 to 182 °C.
Next, `CCC1(CC)c2cc(CO)c(CO)cc2C(CC)(CC)N1Cc1ccccc1`: 155 to 158 °C; `CN(C)CCCn1c(-c2ccc(Br)cc2)cc2c1CCCCC2`: 69 to 70 °C; `COC(=O)N[C@H]1Cc2ccc(N)cc2C1`: 140 to 142 °C.
Next, `O=P(Oc1ccc(-c2ccc(OP(=O)(c3ccccc3)c3ccccc3)cc2)cc1)(c1ccccc1)c1ccccc1`: 233 to 234 °C; `CCc1ccc(OC)c(-c2cc(C(C)(C)C)c(O)c(C(C)(C)C)c2)c1`: 78 to 79 °C; `CCOC1CC2(C)C(CCC3C4CCC(C(C)=O)C4(C)CC(NCCC(C)C)C32)CC1O` (stereo not drawn): 110 to 112 °C.
For `CCOC(=O)CCC12CCC(=O)N1C(=O)CC2` the value was 104 to 105 °C.
As for `CC1CCC(NS(N)(=O)=O)CC1` (stereo not drawn), the melting point lay in the range of 109 to 110 °C.
Next, `Cc1cc(SC2=C(O)CC(C3CCCC3)(C3CCCC3)OC2=O)c(C(C)(C)C)cc1OCCO`: 90 to 92 °C.
`CC=C(C)c1ccc(-c2ccccc2F)cc1`: the melting point fell in the range of 83 to 85 °C.
Next, `CCOC(=O)c1c(C)cc2c(c1C)c(=O)n(-c1ccccc1C(F)(F)F)c(=O)n2CCN1CCCCC1`: 144 to 145 °C; `Cc1c(C)c(N2CCN(c3ccn(C)n3)CC2)c(C)c2c1OC(C)(C)C2`: 147 to 149 °C.
In turn, `O=c1ncc(C(F)(F)F)c[nH]1` returned a melting point of 154 °C.
As for `CN1C2=NCCN2C(=O)c2cc(Cl)ccc21`, the melting point was in the range of 200 to 202 °C.
In turn, `O=C1c2ccccc2C(=O)N1CCCCOc1ccc(-n2cnnn2)cc1` registered a melting point of 143 to 145 °C.
Regarding `CCOC(=O)c1oc2ccc(CSC)c(O)c2c1C`, the melting point was 101 °C.
As for `CC(C)[C@H](NC(=O)OCc1ccccc1)C(=O)NNS(=O)(=O)c1ccccc1`, the melting point fell in the range of 253 to 255 °C.
As to `CC(C)n1nc(-c2sc(NC(=O)c3ccccc3Cl)nc2-c2ccccc2)ccc1=O`, the melting point was 220 to 221 °C.
Next, `N#Cc1c(N)n[nH]c1-c1ccc(Oc2ccccc2)cc1`: 187 to 188 °C; `COc1cc(OC)c(-c2cc3ccccc3s2)cc1/C=C/C(=O)c1ccc(C(=O)NCC(F)(F)F)cc1`: 215 to 217 °C; `CCOC(=O)/C=C/C(=O)Nc1ccc2ncnc(Nc3cccc(Br)c3)c2c1`: 259 to 263 °C.
Consider `O=C(c1ccccc1)c1ccc(OCc2ccccc2)cc1S`, for which the melting point lay within 122 to 123 °C.
For `Cc1cccc(NC(=O)NCC(=O)N2[C@@H](C(=O)NC(C)(C)C)CC[C@H]2c2ccccc2)c1` (racemic), the melting point was determined as 169 °C.
Molecule `CCOC(=O)c1cnc(O)nc1-c1ccccc1` yielded a melting point of over 260 °C.
Next, `CCN(CC)c1ccc2nc3c4ccc(Br)cc4c(=Nc4ccccn4)cc-3oc2c1`: 204 to 205 °C; `CC[C@@H](Nc1nc(NCc2cccnc2)c2ncn(C(C)C)c2n1)C(C)(C)O`: 138 to 145 °C; `CC(C)NC(=N)NC1=NC(=O)C(=O)N1c1ccc(Cl)c(Cl)c1`: 244 °C.
`Cc1[nH]c2ccccc2c1CCCN1CCC(c2noc3ccccc23)CC1` yielded a melting point of 110 to 112 °C.
Molecule `O=C(O)CN1CCC(=C2c3ccccc3COc3ccccc32)CC1` gave a melting point of 132 to 135 °C.
In turn, `CC(C)(C)Cc1c(CC(C)(C)C(=O)O)n(Cc2ccc(Cl)cc2)c2ccc(OCc3ccc4occc4n3)cc12` returned a melting point of 172 to 173 °C.
`Cc1ccc(-c2cn3cc(C(F)(F)F)ccc3n2)cc1` showed a melting point of 187 to 188 °C.
With `CCCCC(=N)NC(=O)Nc1ccccc1OCc1ccccc1`, the melting point fell in the range of 145 to 147 °C.
For `CC(=O)OC1CN=C(c2ccccc2Cl)c2ccccc2N(C)C1` (stereo not drawn) the value was 129 to 131 °C; for `O=C(O)CNC(=O)c1ncc2c(Cl)cccc2c1O`, 232 °C; for `Cc1ccccc1-c1ccc2c(c1)CCCc1c-2nc2ccc(F)cc2c1C(=O)O`, over 300 °C.
For `CCCCC1(CC)OCc2c1cnc(C)c2OCC(=O)O` (stereo not drawn) the value was 193 °C.
Next, `Cc1cc(C)n(-c2ccc(N3CCOCC3)nn2)n1`: 119 to 121 °C; `CC(=O)N1CCN=C1Nc1cc(C)nn1-c1ccccc1C`: 160 to 161 °C; `COCCOCCOc1cc(OC)c(-c2cccs2)cc1/C=C/C(=O)c1ccc(C(=O)O)cc1`: 145 to 146 °C.
The molecule `COC(=O)c1cncn1C1c2ccccc2C(Br)(Br)C1(C)C` (stereo not drawn) yielded a melting point of 138 °C.
Consider `CC1(C)OCC(C)(C)c2cc(OS(C)(=O)=O)ccc2O1`, for which the melting point lay within 65 to 67 °C.
In the case of `CN(Cc1ccc(NC(=O)C2=Cc3cc(-c4ccc5c(c4)OCCO5)ccc3S(=O)(=O)CC2)cc1)C1CCOCC1`, the melting point fell in the range of 248 to 251 °C.
Next, `COc1cc2c(cc1OC)C1=C(C#N)SCC(=O)N1CC2`: 186 to 187 °C.
Next, `CCN(C)C(C)C(=O)Nc1cccc2c1C(=O)c1c(NC(=O)C(C)N(C)CC)cccc1C2=O` (stereo not drawn): 129 to 130 °C; `ON=Cc1cn(C(c2ccccc2)(c2ccccc2)c2ccccc2)c(F)n1`: 147 to 149 °C; `CCOc1c(OC)c(OC)cc(C(=O)O)c1-c1c(C(=O)O)cc(OC)c2c1OCO2`: 236 to 237 °C.
For `N#Cc1ccc(N2c3cc(Cl)ccc3C(=O)OC23CCNCC3)cc1` the value was 183 to 185 °C.
For the molecule `CC1(C)Cc2cc(O)c3c(c2C(c2cccc(-c4ccncc4)c2)=N1)CC(C)(C)O3`, the melting point lay within 141 to 149 °C.
Consider `CCc1nc(-c2ccc(F)cc2)c(-c2ccc(S(C)(=O)=O)cc2)s1`, for which the melting point lay within 156 to 157 °C.
Next, `CCOC(=O)c1c[nH]c2cnc3cc(F)c(F)cc3c2c1=O`: 300 °C; `Cc1ccc(S(=O)(=O)NC(=O)C2C(=O)CC(C(C)(C)C)CC2=O)cc1` (stereo not drawn): 162 to 163 °C.
For the molecule `CO[C@@H]1COCC[C@]1(OC)c1cccc(OCc2ccc3ccccc3c2)c1` (racemic), the melting point was in the range of 86 to 88 °C.
On to `Cc1nc2c3c(ccc2n1C)[C@@H](O)[C@H](O)[C@@H](c1ccccc1)N3`, for which the melting point turned out to be 225 °C.
Next, `Oc1cc(C(F)(F)F)nn1-c1ccccc1`: 190 to 192 °C; `CC(=O)c1cc([N+](=O)[O-])ccc1NC(=O)CCl`: 162 °C; `CCOC(=O)c1c(CCCn2cncn2)nc2sc3c(c2c1-c1ccc(OC)c(OC)c1)CCN(C(=O)c1ccc(Cl)cc1)C3`: 114 to 116 °C.
Next, `CN(CC(=O)NC1(c2ccccc2Cl)C(=O)Nc2ccc(Cl)cc21)CC(=O)OC(C)(C)C` (stereo not drawn): 200 °C.
Turning to `Nc1cc(C(=O)CCC(=O)O)ccc1Br`, the melting point lay in the range of 169 to 171 °C.
Next, `CCOC(=O)c1oc2ccc(Cl)cc2c1CN(C)CC(OC)OC`: 58 to 60 °C; `Cn1cc(-c2ncc(-c3ccc4cc(OCC#N)ccc4c3)o2)c2ccccc21`: 196 to 198 °C; `Clc1ccc(Cn2ccc3cc(OCc4ccc5ccccc5n4)ccc32)cc1`: 102 to 104 °C.
With `NS(=O)(=O)c1cc(C(=O)CCCCCl)cc2c1CCC2`, the melting point lay in the range of 117 to 119 °C.
For `Cc1ccc(S(=O)(=O)NC(CSCC(=O)O)C(=O)O)cc1` (stereo not drawn) the value was 152 °C; for `Cc1cc(-c2nc3ccccc3c(=O)n2-c2ccc(Br)cc2)cc(C)c1OCCO`, 164 to 165 °C; for `O=C1CC2(C(=O)N1)C(=O)N(Cc1ccc(Br)cc1F)C(=O)c1ccccc12` (stereo not drawn), 112 to 114 °C.
Next, `N#Cc1cc(O)cc(OCCc2ccccn2)c1N`: 149 to 150 °C.
`O=c1cc(-c2ccc(F)cc2)c2ccc(Sc3cc(F)cc(C(O)(c4nccs4)C(F)(F)F)c3)cc2o1` (stereo not drawn) gave a melting point of 72 to 73 °C.
For `CC(C)C(=O)N[C@@H](CSC(=O)C(C)(C)C)C(=O)NCCSC(=O)c1ccccc1` the value was 112 to 114 °C; for `Cc1nc2ccc3c(c2o1)C(O)(CC#N)C(C(C)C)C3` (stereo not drawn), 149 to 152 °C; for `CCCCc1nc(Sc2ccc(OC)cc2)c(C(=O)OCC)[nH]1`, 96 °C.
For `O=C(O)C(Cc1ccccc1)Oc1ccc2cc(-c3nc(-c4ccccc4)sc3Br)ccc2c1Br` (stereo not drawn) the value was 221 to 223 °C; for `CSCCC(NC(=O)Nc1cccc(C)c1)C(=O)O` (racemic), 143 °C; for `COc1ccc(N=C(C#Cc2ccccc2)N2CCCN(Cc3ccc(C)cc3)CC2)cc1`, 66 °C.
For `OCc1ccc2cc(CO)ccc2c1` the value was 171 to 172 °C; for `O=C(NC(CO)CO)c1cccc(-c2ccc3c(c2)C(c2cc(Cl)ccc2Cl)CC3)c1` (stereo not drawn), 166 °C.
Take `O=C(NC1C=NC=CC1=O)c1ccccc1F` (stereo not drawn): the melting point was 116 to 117 °C.
For `CCCc1c2c(c([N+](=O)[O-])c3c(=O)cc(C(=O)O)oc13)CCCC2` the value was 265 to 267 °C; for `Nc1cccc(C=Cc2ccc(O)cc2)n1`, 224 to 225 °C.
For `C=CCCc1sc(C#N)c2c1C(=O)CC(C)(C)C2` the value was 43 to 46 °C; for `CC(CC(=O)N1CCCC1)Sc1cc(C(C)(C)C)c(O)c(C(C)(C)C)c1` (stereo not drawn), 95 to 99 °C; for `O=C1C(=O)c2ccccc2C2=C1SCC1(CCN(C(=O)c3ccc(Cl)c(Cl)c3)CC1)O2`, 221 °C.
For `O=C(O)C(=O)c1ccc(S(=O)CCOc2ccc3ccccc3c2)cc1` (stereo not drawn) the value was 157 to 158 °C; for `O=C(O)Cc1c(C(=O)c2ccc(OC(F)(F)F)cc2)[nH]c2ccc(Cl)cc12`, 187 °C.
In the case of `Cc1c(C)c2c(c(C)c1O)C(=O)C(C)(C)O2`, the melting point fell in the range of 142 to 144 °C.
